Results from the supplement of paper PMC10307832.

Tests used:
Assay in all cases: relative viability (nuclei count vs DMSO), 5 days (fraction); higher = more cells survive
A-427 = tested on: A-427
Procedure, shortened: (§1)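 Values are medians from duplicate plates. Each reflects relative viability, defined as the nuclei count of treated wells over that of vehicle wells. Lung cancer cell lines in 1536-well plates were pin-tool dosed one day after seeding with one drug alone or with a fixed anchor-drug dose plus five library-drug doses (not always all listed) in √10 steps, then fixed, stained and imaged at 4× after 5 days.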

ABC-1 = tested on: ABC-1
Procedure, shortened: as §1

COR-L23 = tested on: COR-L23
Procedure, shortened: as §1

ChaGo-K-1 = tested on: ChaGo-K-1
Procedure, shortened: as §1

EMC-BAC-2 = tested on: EMC-BAC-2
Procedure, shortened: as §1

HARA = tested on: HARA
Procedure, shortened: as §1

HCC-15 = tested on: HCC-15
Procedure, shortened: as §1

HCC-366 = tested on: HCC-366
Procedure, shortened: as §1

HCC-78 = tested on: HCC-78
Procedure, shortened: as §1

LC-2-ad = tested on: LC-2-ad
Procedure, shortened: as §1

NCI-H1734 = tested on: NCI-H1734
Procedure, shortened: as §1

NCI-H1993 = tested on: NCI-H1993
Procedure, shortened: as §1

NCI-H2009 = tested on: NCI-H2009
Procedure, shortened: as §1

NCI-H2023 = tested on: NCI-H2023
Procedure, shortened: as §1

NCI-H2126 = tested on: NCI-H2126
Procedure, shortened: as §1

NCI-H2228 = tested on: NCI-H2228
Procedure, shortened: as §1

NCI-H23 = tested on: NCI-H23
Procedure, shortened: as §1

NCI-H2405 = tested on: NCI-H2405
Procedure, shortened: as §1

NCI-H838 = tested on: NCI-H838
Procedure, shortened: as §1

SK-LU-1 = tested on: SK-LU-1
Procedure, shortened: as §1

UMC-11 = tested on: UMC-11
Procedure, shortened: as §1

CC1(C)CCC(c2ccc(Cl)cc2)=C(CN2CCN(c3ccc(C(=O)NS(=O)(=O)c4ccc(N[C@H](CCN5CCOCC5)CSc5ccccc5)c(S(=O)(=O)C(F)(F)F)c4)cc3)CC2)C1 [Navitoclax] + CC(C)C[C@H](NC(=O)[C@H](Cc1ccccc1)NC(=O)c1cnccn1)B(O)O [Bortezomib] (partner 0.002 µM) was tested, and the relative viability (A-427; first compound 0.005 µM) was 1.06, the relative viability (A-427; first compound 0.01581 µM) was 1.04 and the relative viability (A-427; first compound 0.05 µM) was 0.819. The relative viability (A-427; first compound 0.1581 µM) was 1.02, the relative viability (A-427; first compound 0.5 µM) was 0.949 and the relative viability (ABC-1; first compound 0.005 µM) was 0.28. The relative viability (ABC-1; first compound 0.01581 µM) was 0.286, the relative viability (ABC-1; first compound 0.05 µM) was 0.265 and the relative viability (ABC-1; first compound 0.1581 µM) was 0.254. For the same compound, the relative viability (ABC-1; first compound 0.5 µM) was 0.216, the relative viability (COR-L23; first compound 0.005 µM) was 0.964 and the relative viability (COR-L23; first compound 0.01581 µM) was 1.03. The relative viability (COR-L23; first compound 0.05 µM) was 1.15, the relative viability (COR-L23; first compound 0.1581 µM) was 0.929 and the relative viability (COR-L23; first compound 0.5 µM) was 0.975. It also gave a relative viability (ChaGo-K-1; first compound 0.005 µM) of 0.907, a relative viability (ChaGo-K-1; first compound 0.01581 µM) of 1.01 and a relative viability (ChaGo-K-1; first compound 0.05 µM) of 0.91. For the same compound, the relative viability (ChaGo-K-1; first compound 0.1581 µM) was 0.959, the relative viability (ChaGo-K-1; first compound 0.5 µM) was 1.04 and the relative viability (EMC-BAC-2; first compound 0.005 µM) was 1.04. For the same compound, the relative viability (EMC-BAC-2; first compound 0.01581 µM) was 1.19, the relative viability (EMC-BAC-2; first compound 0.05 µM) was 1.01 and the relative viability (EMC-BAC-2; first compound 0.1581 µM) was 1.03. It also gave a relative viability (EMC-BAC-2; first compound 0.5 µM) of 1.12, a relative viability (HARA; first compound 0.005 µM) of 1.04 and a relative viability (HARA; first compound 0.01581 µM) of 1.11. It also gave a relative viability (HARA; first compound 0.05 µM) of 0.643, a relative viability (HARA; first compound 0.1581 µM) of 1.08 and a relative viability (HARA; first compound 0.5 µM) of 1.18. It also gave a relative viability (HCC-15; first compound 0.005 µM) of 0.941, a relative viability (HCC-15; first compound 0.01581 µM) of 0.995 and a relative viability (HCC-15; first compound 0.05 µM) of 0.85. The relative viability (HCC-15; first compound 0.1581 µM) was 1.06, the relative viability (HCC-15; first compound 0.5 µM) was 1 and the relative viability (HCC-366; first compound 0.005 µM) was 1. For the same compound, the relative viability (HCC-366; first compound 0.01581 µM) was 1.06, the relative viability (HCC-366; first compound 0.05 µM) was 0.539 and the relative viability (HCC-366; first compound 0.1581 µM) was 0.974. For the same compound, the relative viability (HCC-366; first compound 0.5 µM) was 1.04, the relative viability (HCC-78; first compound 0.005 µM) was 0.582 and the relative viability (HCC-78; first compound 0.01581 µM) was 0.611. It also gave a relative viability (HCC-78; first compound 0.05 µM) of 0.404, a relative viability (HCC-78; first compound 0.1581 µM) of 0.45 and a relative viability (HCC-78; first compound 0.5 µM) of 0.469. The relative viability (LC-2-ad; first compound 0.005 µM) was 0.988, the relative viability (LC-2-ad; first compound 0.01581 µM) was 1.1 and the relative viability (LC-2-ad; first compound 0.05 µM) was 0.941. It also gave a relative viability (LC-2-ad; first compound 0.1581 µM) of 1.01, a relative viability (LC-2-ad; first compound 0.5 µM) of 1.06 and a relative viability (NCI-H1734; first compound 0.005 µM) of 1.05. The relative viability (NCI-H1734; first compound 0.01581 µM) was 1.12, the relative viability (NCI-H1734; first compound 0.1581 µM) was 0.899 and the relative viability (NCI-H1734; first compound 0.5 µM) was 1.02. The relative viability (NCI-H1993; first compound 0.005 µM) was 1.11, the relative viability (NCI-H1993; first compound 0.01581 µM) was 1.58 and the relative viability (NCI-H1993; first compound 0.05 µM) was 0.961. It also gave a relative viability (NCI-H1993; first compound 0.1581 µM) of 0.958, a relative viability (NCI-H1993; first compound 0.5 µM) of 1.06 and a relative viability (NCI-H2009; first compound 0.005 µM) of 0.958. The relative viability (NCI-H2009; first compound 0.01581 µM) was 1.19, the relative viability (NCI-H2009; first compound 0.05 µM) was 0.953 and the relative viability (NCI-H2009; first compound 0.1581 µM) was 0.979. The relative viability (NCI-H2009; first compound 0.5 µM) was 1.02, the relative viability (NCI-H2023; first compound 0.005 µM) was 1.06 and the relative viability (NCI-H2023; first compound 0.01581 µM) was 1.18. The relative viability (NCI-H2023; first compound 0.05 µM) was 0.857, the relative viability (NCI-H2023; first compound 0.1581 µM) was 0.906 and the relative viability (NCI-H2023; first compound 0.5 µM) was 0.938. For the same compound, the relative viability (NCI-H2126; first compound 0.005 µM) was 1.08, the relative viability (NCI-H2126; first compound 0.01581 µM) was 1.12 and the relative viability (NCI-H2126; first compound 0.05 µM) was 1.07. For the same compound, the relative viability (NCI-H2126; first compound 0.1581 µM) was 1.12, the relative viability (NCI-H2126; first compound 0.5 µM) was 1.15 and the relative viability (NCI-H2228; first compound 0.005 µM) was 0.849. The relative viability (NCI-H2228; first compound 0.01581 µM) was 1.33, the relative viability (NCI-H2228; first compound 0.05 µM) was 0.726 and the relative viability (NCI-H2228; first compound 0.1581 µM) was 0.804. It also gave a relative viability (NCI-H2228; first compound 0.5 µM) of 0.992, a relative viability (NCI-H23; first compound 0.005 µM) of 0.894 and a relative viability (NCI-H23; first compound 0.01581 µM) of 1.3. It also gave a relative viability (NCI-H23; first compound 0.05 µM) of 1.24, a relative viability (NCI-H23; first compound 0.1581 µM) of 1.02 and a relative viability (NCI-H23; first compound 0.5 µM) of 1.02. The relative viability (NCI-H2405; first compound 0.005 µM) was 0.975, the relative viability (NCI-H2405; first compound 0.01581 µM) was 1.09 and the relative viability (NCI-H2405; first compound 0.05 µM) was 0.816. For the same compound, the relative viability (NCI-H2405; first compound 0.1581 µM) was 0.974, the relative viability (NCI-H2405; first compound 0.5 µM) was 0.906 and the relative viability (NCI-H838; first compound 0.005 µM) was 0.65. The relative viability (NCI-H838; first compound 0.01581 µM) was 1.19, the relative viability (NCI-H838; first compound 0.05 µM) was 1.17 and the relative viability (NCI-H838; first compound 0.1581 µM) was 0.75. The relative viability (NCI-H838; first compound 0.5 µM) was 0.81, the relative viability (SK-LU-1; first compound 0.005 µM) was 1.19 and the relative viability (SK-LU-1; first compound 0.01581 µM) was 1.12. For the same compound, the relative viability (SK-LU-1; first compound 0.05 µM) was 0.477, the relative viability (SK-LU-1; first compound 0.1581 µM) was 1.09 and the relative viability (SK-LU-1; first compound 0.5 µM) was 0.961. For the same compound, the relative viability (UMC-11; first compound 0.005 µM) was 0.629, the relative viability (UMC-11; first compound 0.01581 µM) was 0.8 and the relative viability (UMC-11; first compound 0.1581 µM) was 0.661. For the same compound, the relative viability (UMC-11; first compound 0.5 µM) was 0.311.
